The text below walks through data of the supplement of paper PMC3974653.

Where a name gives a salt, the structure may show the parent alone. A value given as a limit tells only on which side of the number the result lay.

For this test, the system named is MTT (mouse pheochromocytoma). As to the kind of experiment: IC50 of cell viability (ATP content). The note with it: (24 or 48 h). An outline of the steps:
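After overnight culture at 37°C, 5% CO2 in white 1536-well plates, MTT mouse pheochromocytoma cells were given 23 nl of library compound in DMSO by pintool across 8 concentrations, spanning final 0.5 nM to 46 µM. Following 24 or 48 hrs, CellTiter-Glo luminescence was read after 15 minutes and normalised against positive-control (100%) and DMSO (0%) wells. A four-parameter logistic model provided the IC50.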
In the case of `CCN1C[C@]2(COC)[C@H](O)C[C@H](OC)[C@]34C1C([C@H](OC)[C@H]23)[C@]1(OC(C)=O)[C@H]2[C@@H](OC(=O)c3ccccc3)[C@](O)(C[C@H]24)[C@@H](OC)[C@@H]1O` [ACONITINE], the “IC50 of cell viability” value was over 46 µM.

On to `CCOc1ccc2nc3cc(N)ccc3c(N)c2c1` [ACRINOL], for which the “IC50 of cell viability” value is over 46 µM.

On to `CC(C)(C)C(=O)OCOP(=O)(COCCn1cnc2c(N)ncnc21)OCOC(=O)C(C)(C)C` [ADEFOVIR DIPIVOXIL], for which the “IC50 of cell viability” value is over 46 µM.

For the compound `Nc1ncnc2c1ncn2[C@@H]1O[C@H](COP(=O)(O)OP(=O)(O)OP(=O)(O)O)[C@@H](O)[C@H]1O` [ADENOSINE TRIPHOSPHATE], the “IC50 of cell viability” value is over 46 µM.

Turning to `Nc1ncnc2c1ncn2[C@@H]1O[C@H](COP(=O)(O)O)[C@@H](O)[C@H]1O` [ADENOSINE-5'-MONOPHOSPHATE (AMP)], the “IC50 of cell viability” value was over 46 µM.

For the compound `Nc1ncnc2c1ncn2[C@@H]1O[C@H](CO)[C@@H](O)[C@H]1O` [ADENOSINE], the “IC50 of cell viability” value is over 46 µM.

On to `CCN(CC)CCOC(=O)C(c1ccccc1)c1ccccc1.Cl` [ADIPHENINE HYDROCHLORIDE], for which the “IC50 of cell viability” value is over 46 µM.

For the compound `O=C(C[S+]([O-])C(c1ccccc1)c1ccccc1)NO` (stereo not drawn) [ADRAFINILUM], the “IC50 of cell viability” value is over 46 µM.

As to `CCN(CC)CC1CCCCN1CC(=O)N1c2ccccc2C(=O)Nc2cccnc21` (stereo not drawn) [AF-DX 116], the “IC50 of cell viability” value is over 46 µM.

`CC(=O)NC(Cc1ccccc1)C(=O)O` (stereo not drawn) [AFALANINUM]: the “IC50 of cell viability” value is over 46 µM.

With `Cc1ccccc1N1C(=O)c2cc(N)ccc2N/C1=C\F` [AFLOQUALONE], the “IC50 of cell viability” value was over 46 µM.

Turning to `CCCCCCCCCCCCCCCCC(C(=O)O)C(O)(CC(=O)O)C(=O)O` (stereo not drawn) [AGARICINUM], the “IC50 of cell viability” value is over 46 µM.

In the case of `NC(=O)c1ncn(C2OC(CO)C(O)C2O)c1N` (stereo not drawn) [AICAR], the “IC50 of cell viability” value is over 46 µM.

Consider `NC(=O)c1ccc([N+](=O)[O-])cc1Cl` [AKLOMIDE], for which the “IC50 of cell viability” value was over 46 µM.

In the case of `CC(=O)SC[C@@H](C)C(=O)N1CCC[C@H]1C(=O)N[C@@H](Cc1ccccc1)C(=O)O` [ALACEPRIL], the “IC50 of cell viability” value was over 46 µM.

In the case of `C[C@H](N)C(=O)N[C@@H](C)P(=O)(O)O` [ALAFOSFALINUM], the “IC50 of cell viability” value was over 46 µM.

With `CC(N)C(=O)OC(C)(C)Cc1ccc(Cl)cc1` (stereo not drawn) [ALAPROCLATE], the “IC50 of cell viability” value is over 46 µM.

In the case of `C=CCN1C(=O)C(CC(C)C)NC1=S` (stereo not drawn) [ALBUTOINUM], the “IC50 of cell viability” value was over 46 µM.

`Cc1ccccc1C(=O)N1CC/C(=N/OS(=O)(=O)[O-])c2ccc(Cl)cc21` [ALILUSEM POTASSIUM]: the “IC50 of cell viability” value is over 46 µM.

Turning to `O=C1c2ccccc2C(=O)c2c1ccc(O)c2O` [ALIZARIN], the “IC50 of cell viability” value was over 46 µM.

For `C=CCOc1cc(Cl)ccc1C(=O)NCCN(CC)CC` [ALLOCLAMIDE HYDROCHLORIDE], the “IC50 of cell viability” value is over 46 µM.

As for `CN(C)CCc1c[nH]c2ccc(C[S+](=O)([O-])N3CCCC3)cc12` [ALMOTRIPTAN], the “IC50 of cell viability” value was over 46 µM.

As to `Cc1[nH]cnc1CN1CCc2c(c3ccccc3n2C)C1=O` [ALOSETRON HYDROCHLORIDE], the “IC50 of cell viability” value is over 46 µM.

Regarding `C=CCc1ccccc1OCC(O)CNC(C)C` (stereo not drawn) [ALPRENOLOL], the “IC50 of cell viability” value was over 46 µM.

For the compound `C=CCSCC1Nc2cc(Cl)c([S+](N)(=O)[O-])cc2[S+](=O)([O-])N1` (stereo not drawn) [ALTHIAZIDE], the “IC50 of cell viability” value is over 46 µM.

On to `NC12CC3CC(CC(C3)C1)C2` [AMANTIDINE], for which the “IC50 of cell viability” value is over 46 µM.

For the compound `CC[N+](CC)(CCNC(=O)C(=O)NCC[N+](CC)(CC)Cc1ccccc1Cl)Cc1ccccc1Cl` [AMBENONIUM], the “IC50 of cell viability” value was over 46 µM.

For `COC(c1ccccc1)(c1ccccc1)C(Oc1nc(C)cc(C)n1)C(=O)O` (stereo not drawn) [AMBRISENTAN], the “IC50 of cell viability” value is over 46 µM.

Consider `Nc1c(Br)cc(Br)cc1CNC1CCC(O)CC1` (stereo not drawn) [AMBROXOL HYDROCHLORIDE], for which the “IC50 of cell viability” value was over 46 µM.

With `CC(=O)OCC(=O)[C@@]12OC3(CCCC3)OC1CC4C5CCC/6=C/C(=O)/C=C\[C@@]6(C)[C@]5(F)C(O)C[C@@]24C` (stereo partly drawn) [AMCINONIDE], the “IC50 of cell viability” value was over 46 µM.

Take `O=C1NCN(c2ccccc2)C12CCN(CCCOc1ccc(F)cc1)CC2` [AMI-193]: the “IC50 of cell viability” value was over 46 µM.

Turning to `N=C(N)NC(=O)c1nc(Cl)c(N)nc1N` [AMILORIDE], the “IC50 of cell viability” value was over 46 µM.

Regarding `Cc1c(C)n(CCN(C)C)c2ccc(C(=O)OCCN(C)C)cc12` [AMINDOCATUM], the “IC50 of cell viability” value is over 46 µM.

For the compound `NCC(O)CC(=O)O` (stereo not drawn) [AMINOHYDROXYBUTYRIC ACID], the “IC50 of cell viability” value is over 46 µM.

`Cl.NCC(=O)CCC(=O)O` [AMINOLEVULINIC ACID HYDROCHLORIDE]: the “IC50 of cell viability” value is over 46 µM.

With `Nc1nc(N)c2nc(CNc3ccc(C(=O)NC(CCC(=O)O)C(=O)O)cc3)cnc2n1` (stereo not drawn) [AMINOPTERIN], the “IC50 of cell viability” value is over 46 µM.

Turning to `CCN(CC)CCCC(C)Nc1cc(/C=C/c2ccccc2Cl)nc2cc(Cl)ccc12` (stereo not drawn) [AMINOQUINOLUM], the “IC50 of cell viability” value is over 46 µM.

Take `Cc1cc(N)c2cc(NC(=O)Nc3ccc4nc(C)cc(N)c4c3)ccc2n1` [AMINOQUINURIDUM]: the “IC50 of cell viability” value is over 46 µM.

As for `Nc1nccs1` [AMINOTHIAZOLE], the “IC50 of cell viability” value is over 46 µM.

For `C[N@+]1([O-])[C@@H]2C[C@H](OC(=O)[C@@H](CO)c3ccccc3)C[C@@H]1[C@H]1O[C@H]12` [AMINOXYSCOPOLAMINE HYDROBROMIDE], the “IC50 of cell viability” value is over 46 µM.

On to `CCCCc1oc2ccccc2c1C(=O)c1cc(I)c(OCCN(CC)CC)c(I)c1` [AMIODARONE], for which the “IC50 of cell viability” value is over 46 µM.

Regarding `Nc1nc(N)c(-c2ccccc2)s1` [AMIPHENAZOLUM], the “IC50 of cell viability” value is over 46 µM.

As for `CN(C)CCCOC1C(C(O)CO)OC2OC(C)(C)O[C@@H]21.Cl` (stereo partly drawn) [AMIPRILOSE], the “IC50 of cell viability” value is over 46 µM.

With `Cc1ccc(/N=C/N(C)/C=N/c2ccc(C)cc2C)c(C)c1` [AMITRAZ], the “IC50 of cell viability” value is over 46 µM.

As for `CC(C)c1ccc2oc3nc(N)c(C(=O)O)cc3c(=O)c2c1` [AMLEXANOX], the “IC50 of cell viability” value was over 46 µM.

`CCOC(=O)C\1=C(COCCN)\N\C(=C(/C1C2=CC=CC=C2Cl)C(=O)OC)C.O[S+]([O-])(=O)C3=CC=CC=C3` (stereo not drawn) [AMLODIPINE BESYLATE]: the “IC50 of cell viability” value is over 46 µM.

For `CCC(C)(C)OC(=O)N[C@@H](Cc1c[nH]c2ccccc12)C(=O)N[C@@H](CCSC)C(=O)N[C@@H](CC(=O)O)C(=O)N[C@@H](Cc1ccccc1)C(N)=O` [AMOGASTRIN], the “IC50 of cell viability” value was over 46 µM.

Turning to `CCC(C)(C)c1ccc(CC(C)CN2C[C@@H](C)O[C@@H](C)C2)cc1` (stereo partly drawn) [AMOROLFINE HYDROCHLORIDE], the “IC50 of cell viability” value was over 46 µM.

`ClC1=CC\2=C(OC3=C(C=CC=C3)\N=C2N4CCNCC4)C=C1` [AMOXAPINE]: the “IC50 of cell viability” value was over 46 µM.

As for `C[C@H](N)Cc1ccccc1` [AMPHETAMINE ADIPATE], the “IC50 of cell viability” value is over 46 µM.

In the case of `CCCCC/C(C=O)=C/c1ccccc1` [AMYL CINNAMAL], the “IC50 of cell viability” value is over 46 µM.

`CCCCCc1ccc(C)cc1O` [AMYLMETACRESOL]: the “IC50 of cell viability” value was over 46 µM.

On to `Oc1cn2c(n1)Nc1ccc(Cl)c(Cl)c1C2` [ANAGRELIDE HYDROCHLORIDE], for which the “IC50 of cell viability” value was over 46 µM.

On to `C=C1CCC2[C@](C)(CO)C(O)CC[C@]2(C)C1C/C=C1/C(=O)OCC1O` (stereo partly drawn) [ANDROGRAPHOLIDE], for which the “IC50 of cell viability” value was over 46 µM.

As for `C[C@]12CC[C@H]3[C@@H](CCC/4=C/C(=O)CC[C@]34C)[C@@H]1CCC2=O` [ANDROSTENEDIONE], the “IC50 of cell viability” value was over 46 µM.

Turning to `CC(=O)OCC(=O)[C@@]1(O)CCC2C3CCC4=CC(=O)CC[C@]4(C)C3=CC[C@@]21C` (stereo partly drawn) [ANECORTAVE ACETATE], the “IC50 of cell viability” value is over 46 µM.

With `COc1ccc(-c2cc(=S)ss2)cc1` [ANETHOLE TRITHIONE], the “IC50 of cell viability” value was over 46 µM.

For the compound `COc1ccc(C(=O)N2CCCC2=O)cc1` [ANIRACETAM], the “IC50 of cell viability” value was over 46 µM.

Take `COc1ccc(C2C(=O)c3ccccc3C2=O)cc1` [ANISINDIONE]: the “IC50 of cell viability” value is over 46 µM.

Regarding `CCCC(CCC)C(=O)OC1C[C@H]2CC[C@@H](C1)[N+]2(C)C` (stereo partly drawn) [ANISOTROPINE METHYLBROMIDE], the “IC50 of cell viability” value was over 46 µM.

In the case of `Clc1cccc(SC2CCNCC2)n1` [ANPIRTOLINE], the “IC50 of cell viability” value is over 46 µM.

For the compound `[S]=[Sb+]([S-])[S][Sb+](=[S])[S-]` [ANTIMONY PENTASULFIDE], the “IC50 of cell viability” value was over 46 µM.

For `CCN(CC)CCOC(=O)C(C)(c1ccccc1)c1ccccc1` [APROFENUM], the “IC50 of cell viability” value is over 46 µM.

For the compound `OCC(O)C(O)C(O)CO` (stereo not drawn) [ARABITOL(D)], the “IC50 of cell viability” value is over 46 µM.

As to `NCC[C@H](O)C(=O)N[C@@H]1C[C@H](N)[C@@H](O[C@H]2O[C@H](CN)CC[C@H]2N)[C@H](O)[C@H]1O[C@H]1O[C@H](CO)[C@@H](O)[C@H](N)[C@H]1O` [ARBEKACIN SULFATE], the “IC50 of cell viability” value was over 46 µM.

Consider `OCC1O[C@H](Oc2ccc(O)cc2)C(O)C(O)C1O` (stereo partly drawn) [ARBUTIN], for which the “IC50 of cell viability” value is over 46 µM.

On to `N=C(N)NCCCCNC(=N)N.O=[S+]([O-])(O)O` [ARCAINE SULFATE], for which the “IC50 of cell viability” value is over 46 µM.

For the compound `COC(=O)\C1=C\CCN(C)C1` [ARECOLINE], the “IC50 of cell viability” value was over 46 µM.
